How the values were obtained:
[1] = target: Klebsiella pneumoniae AcrB multidrug efflux pump; set-up: method as in PMID 37067435; conditions: K. pneumoniae AcrB; cited from earlier work
[2] = test system: Bacillus subtilis expressing mNeongreen-FtsZ; assay: Membrane voltage disruption assay (mNeongreen-FtsZ delocalization); assay type: cell-based
Description: We therefore monitored membrane integrity in the presence of EPM analogs by evaluating membrane voltage with mNeongreen-FtsZ ([28][–][30]). The FtsZ protein localizes to the bacterial septum based on membrane potential, and rapid delocalization of fluorescent FtsZ reporters occurs when voltage across the membrane is disrupted ([31], [32]). We monitored mNeongreen-FtsZ localization in a Gram-positive bacterium, Bacillus subtilis, to eliminate the potentially confounding issue of the passage of EPM analogs through the outer membrane at different rates ([24], [33][–][36]).
To determine whether exposure to compound dislodges FtsZ from the cell septum, an overnight culture of Bacillus subtilis grown in LPM at pH 5.5 (LPM 5.5) expressing mNeonGreen-FtsZ (strain DK5092) was exposed to DMSO, CCCP (100 µM) or an EPM analog (150 µM) for 15 or 30 min, as indicated. Bacteria were immobilized on 1% agarose pads made with LPM under a coverslip. To set the threshold value for the FtsZ septal ring, mNeonGreen signal (excitation 488 nm, emission 525 nm) from at least 20 DMSO-treated cells was quantified using a CV1000 confocal microscope with a 100× oil, NA = 1.4 objective. A background-subtracted image was made by subtracting the median intensity from full original images. A signal threshold of ≥400 arbitrary units per pixel was set (Fig. 4B). Then, we manually confirmed that mNeonGreen signal above threshold was at the center of the bacterial rod. We examined 50 cells per sample from at least three biological replicates (≥150 cells per condition). A MATLAB program (https://github.com/Betterton-Lab/FtsZ-Quantification) counted the number of pixels above threshold per cell and averaged this value across all cells for each condition and this value is reported in the graph (Fig. 4C).

[3] = test system: S. Typhimurium SL1344 (sifB::gfp) in RAW 264.7 macrophages; assay: SAFIRE macrophage assay: intracellular bacterial load (GFP signal within macrophages); assay type: cell-based, Salmonella enterica serotype Typhimurium; conditions: for 5 uM Avg Antibacterial Score / 25 uM Avg Antibacterial Score: 'Toxic' given instead of a score; for IC50: Salmonella enterica, TYPHIMURIUM, RAW264.7, read-out: SAFIRE IC50
Summary of the method: (§1)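 Compound or DMSO added 2 h after gentamicin-protected infection (MOI ~30, sifB::gfp SL1344) of RAW 264.7 cells and left to 18 h. Fixed cells imaged; intracellular GFP area per macrophage gives bacterial load, while retained adherent MitoTracker Red-stained macrophages define host toxicity.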

RAW 264.7 macrophages = assay: SAFIRE macrophage assay: host toxicity (adherent macrophage count, morphology); assay type: cell-based
Summary of the method: as §1

S. Typhimurium = assay: Checkerboard growth assays with antibiotics in LPM 5.5 (FICI and MuSyC analyses); assay type: cell-based; set-up: Antibiotic MIC Combination: unit not given here; EPM MIC Combination: unit: µM; conditions: for log10(α1) [95% CI] (log-fold-change in potency of EPM due to the antibiotic) / Βobs [95% CI] (proportion increase in maximal efficacy of the antibiotic) / log10(α2) [95% CI] (log-fold-change in potency of the antibiotic due to the EPM): MuSyC fit; for Antibiotic MIC Combination / EPM MIC Combination / FICI value: LPM 5.5
Experimental: To examine whether the EPM analogs interact additively or synergistically with antibiotics, checkerboard growth assays were carried out in LPM 5.5. We compared three antibiotics (ciprofloxacin, doxycycline, erythromycin) and three EPM analogs (CU032, CU187, CU232) and the EPM35 parent compound (Fig. 6A). Standard fractional inhibitory concentration index (FICI) analyses supported synergy between the EPM analogs and ciprofloxacin (Fig. 6B). Since FICI values cannot distinguish between synergy due to changes in potency (activity) versus efficacy (the extent of the effect) ([42], [43]), we used the MuSyC synergy algorithm to measure EPM-antibiotic synergy ([44], [45]). The data were well fit by the MuSyC equation, with an R^2 of greater than 0.96 for all checkerboards (Table S2). […] Moreover, the consistency in the synergy of potency values across the antibiotics with different EPM analogs points toward a shared mechanism of action: the EPMs could modify the pharmacodynamics of the efflux process and prevent export of specific substrates through interactions with AcrB. We posit that the EPMs differentially reduce antibiotic export resulting in a higher effective intracellular concentration of the antibiotic.
Overnight cation-adjusted MHB-grown cultures of SL1344 or SA10801 were diluted in MHB or LPM 5.5 to an optical density at 600 nm (OD600) of 0.01 and distributed into polystyrene 96-well flat-bottom plates. EPM analogs were added at concentrations up to 300 µM, near the limit of solubility. The antibiotics ciprofloxacin, doxycycline, and erythromycin were added up to concentrations of 2 µM, 2 µM, and 8 µM, respectively. The final DMSO concentration was at or below 2% in all wells. Plates were grown at 37°C with shaking for 18 h and OD600 was monitored (BioTek Synergy H1, BioTek Eon). Each experiment was performed with biological triplicate or higher as indicated. Percent growth was determined by normalizing to OD600 reads in wells containing no D66 or antibiotic. Checkerboards in LPM 5.5 medium were performed with culture grown overnight in LB and diluted to an OD600 of 0.01 in LPM 5.5 and compounds/antibiotics were added as previously described. MuSyC analysis was pursued as previously described ([44], [45]). Briefly, the 2D Hill equation was fit to the normalized growth inhibition data from the checkerboards using a bounded non-linear least square regression algorithm. A Monte Carlo sampling method was used to compute the 95% CI in the parameter fits from three biological replicates. The bounds on the parameters minimal and maximal efficacy of the antibiotics and EPMs (E0,Emax) were [0.99,1.01] and [0,1], respectively ([44], [45]).

Structure (SMILES) | 5 uM Avg Antibacterial Score [3] | 25 uM Avg Antibacterial Score [3] | 5 uM Avg Cell # Score (RAW 264.7 macrophages) | 25 uM Avg Cell # Score (RAW 264.7 macrophages) | other results
CC[C@H]1OC(=O)[C@H](C)[C@@H](O[C@H]2C[C@@](C)(OC)[C@@H](O)[C@H](C)O2)[C@H](C)[C@@H](O[C@@H]2O[C@H](C)C[C@H](N(C)C)[C@H]2O)[C@](C)(O)C[C@@H](C)C(=O)[C@H](C)[C@@H](O)[C@]1(C)O [erythromycin] | – | – | – | – | Kd [1]: 14400 nM
N#CC(C#N)=NNc1cccc(Cl)c1 [CCCP, carbonyl cyanide m-chlorophenyl hydrazone, reference compound] | – | – | – | – | effect on FtsZ localization ([2]; 100 µM): delocalized FtsZ
NC1CCN(CC(O)COc2ccc(F)cc2F)C1 (stereo not shown) [CU167] | 75 | 58 | 109 | 113 | –
NC1CCN(CC(O)COc2ccc(Cl)cc2)CC1 (stereo not shown) [CU187] | 25 | 24 | 121 | 98 | IC50 [3]: 0.4 nM; log10(α1) [95% CI] (log-fold-change in potency of EPM due to the antibiotic) (S. Typhimurium; Ciprofloxacin): 0.33 [0.19,0.37]; Βobs [95% CI] (proportion increase in maximal efficacy of the antibiotic) (S. Typhimurium; Ciprofloxacin): 0.01 [-0.01,0.04]; log10(α1) [95% CI] (log-fold-change in potency of EPM due to the antibiotic) (S. Typhimurium; Doxycycline): 0.32 [-0.07,0.39]; log10(α2) [95% CI] (log-fold-change in potency of the antibiotic due to the EPM) (S. Typhimurium; Doxycycline): 0.46 [0.37,0.47]; Βobs [95% CI] (proportion increase in maximal efficacy of the antibiotic) (S. Typhimurium; Doxycycline): 0.02 [-0.0,0.02]; log10(α2) [95% CI] (log-fold-change in potency of the antibiotic due to the EPM) (S. Typhimurium; Erythromycin): 0.93 [0.85,0.96]; Βobs [95% CI] (proportion increase in maximal efficacy of the antibiotic) (S. Typhimurium; Erythromycin): 0.04 [0.03,0.04]; Antibiotic MIC Combination (S. Typhimurium; ciprofloxacin (CIPRO) MIC in combination with the EPM): 0.2; Antibiotic MIC Combination (S. Typhimurium; doxycycline (DOXY) MIC in combination with the EPM): 1; EPM MIC Combination (S. Typhimurium; with ciprofloxacin (CIPRO)): 66; FICI value (S. Typhimurium; with ciprofloxacin (CIPRO)): 0.27; EPM MIC Combination (S. Typhimurium; with doxycycline (DOXY)): 100; FICI value (S. Typhimurium; with doxycycline (DOXY)): 0.45; EPM MIC Combination (S. Typhimurium; with erythromycin (ERY)): 100; FICI value (S. Typhimurium; with erythromycin (ERY)): 0.58; effect on mNeongreen-FtsZ ring size / localization ([2]; 150 µM, 15 min, LPM 5.5): did not alter FtsZ localization
COc1ccc(OCC(O)CN2CCC(Nc3nccs3)CC2)cc1 (stereo not shown) [CU054] | 91 | 74 | 98 | 96 | –
OC(COc1ccc(Cl)c(Cl)c1)CN1CCC(n2ccnc2)CC1 (stereo not shown) [CU179] | 36 | 19 | 98 | 91 | IC50 [3]: 45 nM
OC(COc1ccc(Cl)cc1Br)CN1CCC(Nc2nccc(C(F)(F)F)n2)CC1 (stereo not shown) [CU120] | 13 | Toxic | 74 | 46 | –
OC(COc1ccc(Cl)c(Cl)c1)CN1CCC(Nc2ncccn2)CC1 (stereo not shown) [CU042] | 105 | 23 | 77 | 90 | –
OC(CNC1CCNCC1)COc1cc(Cl)cc(Cl)c1 (stereo not shown) [CU202] | 34 | 11 | 100 | 95 | –
OC(COc1cccc2ncccc12)CN1CCC(Nc2nccc(C(F)(F)F)n2)CC1 (stereo not shown) [CU186] | 101 | 9 | 121 | 72 | –
N[C@H]1CC[C@@H](N2CC(COc3cc(Cl)cc(Cl)c3)OC2=O)CC1 (stereo partly shown) [CU218] | 83 | 15 | 163 | 131 | –
N[C@H]1CCN(CC(O)COc2cc(Cl)cc(Cl)c2)C1 (stereo partly shown) [CU204] | 28 | 8.51 | 93 | 101 | –
OC(COc1ccc(Cl)c(Cl)c1)CN1Cc2ccccc2C1 (stereo not shown) [CU136] | 102 | 60 | 83 | 63 | –
CCN(CC)C(=O)C1CCN(CC(O)COc2ccc(Cl)c(Cl)c2)CC1 (stereo not shown) [CU059] | 97 | 46 | 105 | 88 | –
CC(C)N(CCNc1nccc(C(F)(F)F)n1)CC(O)COc1ccc(Cl)c(Cl)c1 (stereo not shown) [CU072] | Toxic | Toxic | 62 | 94 | –
OC(CNC1Cc2ccccc2C1)COc1ccc(Cl)c(Cl)c1 (stereo not shown) [CU159] | 102 | Toxic | 117 | 97 | –

— publication PMC10746280, “Bacterial efflux pump modulators prevent bacterial growth in macrophages and under broth conditions that mimic the host environment” (mBio, 2023)
